According to patent US7838498B2, “Benzylic glycoside derivatives and methods of use” (Theracos, Inc., priority 2007, dated 2010):

Key:
human SGLT2 = target: T1, human SGLT2 (Homo sapiens, UniProt P31639); assay: Methyl-α-D-[U-14C]glucopyranoside uptake assay, cells stably expressing human SGLT2; format: cell-based; settings: HEK293.ETN cells expressing human SGLT2, 1.5 h incubation
T1 construct: A full-length cDNA clone expressing human SGLT2 (GenScript Corporation) was subcloned
T1 sequence (P31639 1-672): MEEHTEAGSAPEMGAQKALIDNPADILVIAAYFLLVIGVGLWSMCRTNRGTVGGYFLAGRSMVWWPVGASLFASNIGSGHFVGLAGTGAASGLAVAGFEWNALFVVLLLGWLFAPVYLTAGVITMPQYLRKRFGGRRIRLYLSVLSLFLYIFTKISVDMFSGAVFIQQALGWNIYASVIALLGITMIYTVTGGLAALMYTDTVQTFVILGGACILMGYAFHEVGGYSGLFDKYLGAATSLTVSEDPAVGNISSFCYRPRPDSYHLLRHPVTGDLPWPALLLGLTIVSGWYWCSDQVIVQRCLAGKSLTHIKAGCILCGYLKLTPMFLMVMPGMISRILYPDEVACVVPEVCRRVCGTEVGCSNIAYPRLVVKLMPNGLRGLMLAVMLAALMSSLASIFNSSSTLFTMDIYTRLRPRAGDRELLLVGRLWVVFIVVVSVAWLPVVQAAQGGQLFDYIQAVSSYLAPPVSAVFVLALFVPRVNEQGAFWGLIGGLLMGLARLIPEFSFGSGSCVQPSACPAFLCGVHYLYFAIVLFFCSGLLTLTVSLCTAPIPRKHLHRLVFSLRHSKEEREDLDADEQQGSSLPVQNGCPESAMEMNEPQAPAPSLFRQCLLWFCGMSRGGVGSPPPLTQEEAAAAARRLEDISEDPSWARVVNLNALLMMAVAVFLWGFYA
Description: A full-length cDNA clone expressing human SGLT2 (GenScript Corporation) was subcloned into […] and Not I sites of pEAK15 expression vector. Clones harboring the cDNA inserts were identified by restriction analysis.
Plasmid containing human SGLT2 was linearized with Nsi I and purified by agarose gel electrophoresis. Using Lipofectamine 2000 Transfection Reagent (Invitrogen Corporation), DNA was transfected into HEK293.ETN cells and cultured in Dulbecco's Modified Eagle Medium (DMEM) containing 10% fetal bovine serum (FBS) at 37° C. under 5% CO2 for 24 h. Transfectants were selected in the same growth medium supplemented with puromycin (Invitrogen Corporation) for two weeks. Puromycin-resistant cells were recovered and seeded on a fresh 96-well plate (single cell per well) and cultured in the presence of puromycin until cells became confluent. Puromycin-resistant clones were evaluated for SGLT2 activity in the methyl-α-D-[U-^14C]glucopyranoside uptake assay described below.
(§1) Cells expressing SGLT1 or SGLT2 were seeded on 96-well ScintiPlate scintillating plates (PerkinElmer, Inc.) in DMEM containing 10% FBS (1×10^5 cells per well in 100 μL medium) incubated at 37° C. under 5% CO2 for 48 h prior to the assay. Cells were washed twice with 150 μL of either sodium buffer (137 mM NaCl, 5.4 mM KCl, 2.8 mM CaCl2, 1.2 mM MgCl2, 10 mM tris(hydroxymethyl)aminomethane/N2-hydroxyethylpiperazine-N′-ethanesulfonic acid [Tris/Hepes], pH 7.2) or sodium-free buffer (137 mM N-methyl-glucamine, 5.4 mM KCl, 2.8 mM CaCl2, 1.2 mM MgCl2, 10 mM Tris/Hepes, pH 7.2). Test compound in 50 μL each of sodium or sodium-free buffer containing 40 μCi/L methyl-α-D-[U-^14C]glucopyranoside (Amersham Biosciences/GE Healthcare), either with (symbols in parentheses) or without (symbols without parentheses) 25% human serum, was added per well of a 96-well plate and incubated at 37° C. with shaking for either 2 h (SGLT1 assay) or 1.5 h (SGLT2 assay). Cells were washed twice with 150 μL of wash buffer (137 mM N-methylglucamine, 10 mM Tris/Hepes, pH 7.2) and methyl-α-D-[U-^14C]glucopyranoside uptake was quantitated using a TopCount scintillation counter (PerkinElmer, Inc.). Sodium-dependent glucopyranoside uptake was measured by subtracting the values obtained with sodium-free buffer from those obtained using sodium buffer (average of triplicate determinations).

human SGLT1 = target: T2, human SGLT1 (Homo sapiens, UniProt P13866); assay: Methyl-α-D-[U-14C]glucopyranoside uptake assay, COS-7 cells expressing human SGLT1; format: cell-based; settings: COS-7 cells expressing human SGLT1, 2 h incubation
T2 construct: Full-length human SGLT1 cDNA on pDream2.1 expression vector was obtained from GenScript Corporation; host or cells: COS-7 cells (American Type Culture Collection)
T2 sequence (P13866 1-664): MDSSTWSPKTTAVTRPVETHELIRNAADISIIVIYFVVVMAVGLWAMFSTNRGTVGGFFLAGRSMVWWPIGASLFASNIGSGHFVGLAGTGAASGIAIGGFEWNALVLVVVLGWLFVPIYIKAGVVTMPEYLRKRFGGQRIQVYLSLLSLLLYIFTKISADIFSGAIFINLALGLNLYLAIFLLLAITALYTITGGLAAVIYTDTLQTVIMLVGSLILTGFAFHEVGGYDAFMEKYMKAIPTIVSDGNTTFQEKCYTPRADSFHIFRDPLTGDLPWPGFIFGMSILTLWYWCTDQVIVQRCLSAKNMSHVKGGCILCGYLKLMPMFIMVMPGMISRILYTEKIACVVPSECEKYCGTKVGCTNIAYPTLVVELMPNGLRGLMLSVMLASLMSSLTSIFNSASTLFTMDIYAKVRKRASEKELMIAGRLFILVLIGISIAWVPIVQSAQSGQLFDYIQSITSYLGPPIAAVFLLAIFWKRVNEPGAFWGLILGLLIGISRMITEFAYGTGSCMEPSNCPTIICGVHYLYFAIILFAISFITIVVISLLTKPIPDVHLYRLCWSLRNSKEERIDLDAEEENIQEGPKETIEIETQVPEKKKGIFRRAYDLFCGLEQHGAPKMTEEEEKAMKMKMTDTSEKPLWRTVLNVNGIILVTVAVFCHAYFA
Method: Full-length human SGLT1 cDNA on pDream2.1 expression vector was obtained from GenScript Corporation and propagated in Escherichia coli strain DH5α using Luria-Bertani (LB) medium containing ampicillin. Plasmid DNA was isolated using the QIAGEN Plasmid Midi Kit (QIAGEN Inc.). […] Transfected cells were stored in DMEM containing 10% dimethyl sulfoxide (DMSO) at −80° C.
as §1

[1] = without human serum (symbols without parentheses)
[2] = with 25% human serum (symbols in parentheses)

Row | SMILES | IC50 (human SGLT2; [1]) | IC50 (human SGLT1; [1]) | IC50 (human SGLT2; [2]) | IC50 (human SGLT1; [2])
1 | C#CCOCCc1cc(Cl)c(Cc2ccc(OCC)cc2)cc1[C@@H]1O[C@H](CO)[C@@H](O)[C@H](O)[C@H]1O [Compound AO, (2S,3R,4R,5S,6R)-2-(4-chloro-5-(4-ethoxybenzyl)-2-(2-(prop-2-ynyloxy)ethyl)phenyl)-6-(hydroxymethyl)tetrahydro-2H-pyran-3,4,5-triol] | < 1 µM | > 10 µM | – | –
2 | C=CCOCCOc1cc(Cl)c(Cc2ccc(CC)cc2)cc1[C@@H]1O[C@H](CO)[C@@H](O)[C@H](O)[C@H]1O [Compound AW, (2S,3R,4R,5S,6R)-2-(2-(2-(allyloxy)ethoxy)-4-chloro-5-(4-ethylbenzyl)phenyl)-6-(hydroxymethyl)tetrahydro-2H-pyran-3,4,5-triol] | < 1 µM | > 10 µM | – | –
3 | C#CCOCc1cc(Cl)c(Cc2ccc(OCC)cc2)cc1[C@@H]1O[C@H](COC(C)=O)[C@@H](O)[C@H](O)[C@H]1O [Compound CD, ((2R,3S,4R,5R,6S)-6-(4-chloro-5-(4-ethoxybenzyl)-2-((prop-2-ynyloxy)methyl)phenyl)-3,4,5-trihydroxytetrahydro-2H-pyran-2-yl)methyl acetate] | – | – | < 1 µM | > 10 µM
4 | CCc1ccc(Cc2cc([C@@H]3O[C@H](CO)[C@@H](O)[C@H](O)[C@H]3O)c(COCC(C)(F)F)cc2Cl)cc1 [Compound CB, (2S,3R,4R,5S,6R)-2-(4-chloro-2-((2,2-difluoropropoxy)methyl)-5-(4-ethylbenzyl)phenyl)-6-(hydroxymethyl)tetrahydro-2H-pyran-3,4,5-triol] | < 1 µM | > 10 µM | – | –
5 | CC#CCOCc1cc(Cl)c(Cc2ccc(CC)cc2)cc1[C@@H]1O[C@H](CO)[C@@H](O)[C@H](O)[C@H]1O [Compound AX, (2S,3R,4R,5S,6R)-2-(2-((but-2-ynyloxy)methyl)-4-chloro-5-(4-ethylbenzyl)phenyl)-6-(hydroxymethyl)tetrahydro-2H-pyran-3,4,5-triol] | – | – | < 1 µM | > 10 µM
6 | C=CCOCc1cc(Cl)c(Cc2ccc(CC)cc2)cc1[C@@H]1O[C@H](CO)[C@@H](O)[C@H](O)[C@H]1O [Compound I, (2S,3R,4R,5S,6R)-2-(2-(allyloxymethyl)-4-chloro-5-(4-ethylbenzyl)phenyl)-6-(hydroxymethyl)tetrahydro-2H-pyran-3,4,5-triol] | < 1 µM | > 10 µM | – | –
7 | CCc1ccc(Cc2cc([C@@H]3O[C@H](CO)[C@@H](O)[C@H](O)[C@H]3O)c(CCOCC(F)F)cc2Cl)cc1 [Compound AI, (2S,3R,4R,5S,6R)-2-(4-chloro-2-(2-(2,2-difluoroethoxy)ethyl)-5-(4-ethylbenzyl)phenyl)-6-(hydroxymethyl)tetrahydro-2H-pyran-3,4,5-triol] | < 1 µM | > 10 µM | – | –
8 | CCc1ccc(Cc2cc([C@@H]3O[C@H](CO)[C@@H](O)[C@H](O)[C@H]3O)c(CCOCC(F)(F)F)cc2Cl)cc1 [Compound AK, (2S,3R,4R,5S,6R)-2-(4-chloro-5-(4-ethylbenzyl)-2-(2-(2,2,2-trifluoroethoxy)ethyl)phenyl)-6-(hydroxymethyl)tetrahydro-2H-pyran-3,4,5-triol] | < 1 µM | > 10 µM | – | –
9 | C#CCOCc1cc(Cl)c(Cc2ccc(CC)cc2)cc1[C@@H]1O[C@H](CO)[C@@H](O)[C@H](O)[C@H]1O [Compound N, (2S,3R,4R,5S,6R)-2-(4-chloro-5-(4-ethylbenzyl)-2-((prop-2-ynyloxy)methyl)phenyl)-6-(hydroxymethyl)tetrahydro-2H-pyran-3,4,5-triol] | < 1 µM | > 10 µM | – | –
10 | C#CCOCCc1cc(Cl)c(Cc2ccc(CC)cc2)cc1[C@@H]1O[C@H](CO)[C@@H](O)[C@H](O)[C@H]1O [Compound AM, (2S,3R,4R,5S,6R)-2-(4-chloro-5-(4-ethylbenzyl)-2-(2-(prop-2-ynyloxy)ethyl)phenyl)-6-(hydroxymethyl)tetrahydro-2H-pyran-3,4,5-triol] | < 1 µM | > 10 µM | – | –
11 | CC#CCOCCCc1cc(Cl)c(Cc2ccc(OCC)cc2)cc1[C@@H]1O[C@H](CO)[C@@H](O)[C@H](O)[C@H]1O [Compound BO, (2S,3R,4R,5S,6R)-2-(2-(3-(but-2-ynyloxy)propyl)-4-chloro-5-(4-ethoxybenzyl)phenyl)-6-(hydroxymethyl)tetrahydro-2H-pyran-3,4,5-triol] | – | – | < 1 µM | > 10 µM
12 | CCc1ccc(Cc2cc([C@@H]3O[C@H](CO)[C@@H](O)[C@H](O)[C@H]3O)c(COCC(O)COC)cc2Cl)cc1 (stereo partly drawn) [Compound W, (2S,3R,4R,5S,6R)-2-(4-chloro-5-(4-ethylbenzyl)-2-((2-hydroxy-3-methoxypropoxy)methyl)phenyl)-6-(hydroxymethyl)tetrahydro-2H-pyran-3,4,5-triol] | < 1 µM | > 10 µM | – | –
13 | CCc1ccc(Cc2cc([C@@H]3O[C@H](CO)[C@@H](O)[C@H](O)[C@H]3O)c(COCC(C)O)cc2Cl)cc1 (stereo partly drawn) [Compound M, (2S,3R,4R,5S,6R)-2-(4-chloro-5-(4-ethylbenzyl)-2-((2-hydroxypropoxy)methyl)phenyl)-6-(hydroxymethyl)tetrahydro-2H-pyran-3,4,5-triol] | < 1 µM | > 10 µM | – | –
14 | C=CCOCc1cc(Cl)c(Cc2ccc(OCC)cc2)cc1[C@@H]1O[C@H](CO)[C@@H](O)[C@H](O)[C@H]1O [Compound AZ, (2S,3R,4R,5S,6R)-2-(2-(allyloxymethyl)-4-chloro-5-(4-ethoxybenzyl)phenyl)-6-(hydroxymethyl)tetrahydro-2H-pyran-3,4,5-triol] | < 1 µM | > 10 µM | – | –
15 | CCc1ccc(Cc2cc([C@@H]3O[C@H](CO)[C@@H](O)[C@H](O)[C@H]3O)c(COCC(F)F)cc2Cl)cc1 [Compound R, (2S,3R,4R,5S,6R)-2-(4-chloro-2-((2,2-difluoroethoxy)methyl)-5-(4-ethylbenzyl)phenyl)-6-(hydroxymethyl)tetrahydro-2H-pyran-3,4,5-triol] | < 1 µM | > 10 µM | – | –
